Data taken from patent publication US20130310412A1, “Combinations of an Opioid/TLR4 Antagonist and a Direct-Acting Alpha-2 Adrenergic Agonist for Use in the Treatment of Pain” (priority 2010, published 2013).
Where two headings read alike, the source gives them in different places.

Legend:
neuropathic pain = details: animal models; cited from earlier work
[1] = molecular target: Toll-like receptor 4 (TLR4) (Homo sapiens, UniProt O00206+Q9Y6Y9); details: cited from earlier work
opioid receptors = details: cited from earlier work
neuropathic back pain = assay: Naltrexone and clonidine alone and in combination in a human subject: pain treatment effect, weight to weight synergy; format: in vivo; details: one hour post-dose, naltrexone 4.5 mg alone, clonidine 0.3 mg alone, combinations with naltrexone 2.25 mg
Experimental: (§1) Naltrexone and clonidine were evaluated alone and in combination on a human subject with the purpose of finding whether or not a combination of the two compounds offers synergistic advantage. Two aspects were evaluated for synergy: one aspect was pain treatment effect comparing the amounts used weight to weight, and the other aspect was an assessment of synergy of side effects.
(§2) The components of the combination were administered to a subject in the following manner: naltrexone 4.5 mg was given in the morning. The clonidine dose was divided into two doses, a dose of 0.1 mg in the morning and a dose of 0.2 mg at bedtime. […] The pain treatment effect of naltrexone and clonidine was evaluated after one hour post-dose.
To determine synergy, the amounts of naltrexone and clonidine administered alone were compared to the combination combined amounts.

trigeminal neuralgia = assay: Case study trigeminal neuralgia, open label, pain intensity scores and percent relief (baseline days 1-6, study drug days 7-30); format: in vivo, human; details: from pain level 9
Description: Trigeminal neuralgia, also known as suicide disease, is a neuropathic disorder characterized by episodes of intense pain in the face, originating from the trigeminal nerve. It has been described as among the most painful conditions known to mankind. This case study is of a person with a three month history of trigeminal neuralgia. […] The pain involved the right check, upper jaw and the upper front teeth. The pain was constant and described as burning, stinging and aching. It was aggravated by eating, brushing teeth, flossing, chewing and talking. The subject's pain level on average was 5, but it would peak to 9. Ibuprofen brought the pain level from 9 to 7 for two hours, vicoden brought their pain level from 9 to 5, but relief lasted only three to four hours. The subject entered open label study for 3 weeks. […].

[2] = cited from earlier work
[3] = full dose; cited from earlier work
[4] = 0.5 mg, 42 IBS patients; cited from earlier work
[5] = Naltrexone and clonidine alone and in combination in a human subject: side effects over 24 hours; details: naltrexone 4.5 mg alone, clonidine 0.3 mg alone, combinations with naltrexone 2.25 mg
Experimental: as §1, §2

leg pain = assay: Case study leg pain caused by L-5 radiculopathy; format: in vivo, human

Sequence of Toll-like receptor 4 (TLR4) (O00206 24-839, species assumed): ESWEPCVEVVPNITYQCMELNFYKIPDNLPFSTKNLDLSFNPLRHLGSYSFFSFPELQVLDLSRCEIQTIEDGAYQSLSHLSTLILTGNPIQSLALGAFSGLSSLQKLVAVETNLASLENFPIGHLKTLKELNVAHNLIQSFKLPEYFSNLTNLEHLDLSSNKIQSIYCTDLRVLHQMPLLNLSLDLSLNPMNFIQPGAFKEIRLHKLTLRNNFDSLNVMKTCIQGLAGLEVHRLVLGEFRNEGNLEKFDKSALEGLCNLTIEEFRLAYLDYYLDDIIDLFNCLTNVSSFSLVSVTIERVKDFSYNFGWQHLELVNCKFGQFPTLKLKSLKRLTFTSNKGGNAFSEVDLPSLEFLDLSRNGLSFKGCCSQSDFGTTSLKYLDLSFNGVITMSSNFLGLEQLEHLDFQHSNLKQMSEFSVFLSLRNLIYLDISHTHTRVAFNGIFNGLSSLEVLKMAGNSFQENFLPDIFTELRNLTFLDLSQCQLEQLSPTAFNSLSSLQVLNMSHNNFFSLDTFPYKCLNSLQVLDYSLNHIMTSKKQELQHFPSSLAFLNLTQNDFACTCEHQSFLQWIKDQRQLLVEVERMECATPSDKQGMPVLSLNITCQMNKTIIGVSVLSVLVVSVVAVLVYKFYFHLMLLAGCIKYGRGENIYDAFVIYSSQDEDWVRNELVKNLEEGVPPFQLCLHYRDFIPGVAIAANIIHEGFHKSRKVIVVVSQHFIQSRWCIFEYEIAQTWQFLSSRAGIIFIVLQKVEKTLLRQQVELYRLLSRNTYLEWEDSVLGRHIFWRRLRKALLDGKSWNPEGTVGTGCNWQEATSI
Sequence of Toll-like receptor 4 (TLR4) (Q9Y6Y9 17-160 limits assumed, species assumed): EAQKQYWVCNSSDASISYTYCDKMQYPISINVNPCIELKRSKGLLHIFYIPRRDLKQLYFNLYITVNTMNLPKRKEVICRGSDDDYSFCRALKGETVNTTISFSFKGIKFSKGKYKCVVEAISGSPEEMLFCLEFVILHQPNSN

Molecule: C=CCN1CC[C@]23c4c5ccc(O)c4O[C@H]2C(=O)CC[C@]3(O)[C@H]1C5 [(+)-naloxone]
- treating symptoms of neuropathic pain (neuropathic pain): effective
- action at TLR4 [1]: selective antagonists of TLR4

Molecule: O=C1CC[C@]2(O)[C@@H]3Cc4ccc(O)c5c4[C@]2(CCN3CC2CC2)[C@@H]1O5 [(+)-naltrexone]
- treating symptoms of neuropathic pain (neuropathic pain): effective
- affinity for opioid receptors (opioid receptors): lack affinity
- action at TLR4 [1]: selective antagonists of TLR4

Molecule: Clc1cccc(Cl)c1N=C1NCCN1 [Clonidine, clonidine]
- % reversal of pain (neuropathic back pain): 50%

Molecule: CC(C)Cc1ccc(C(C)C(=O)O)cc1 (centres unmarked) [Ibuprofen]
- pain level with previous medication (trigeminal neuralgia): 7

Molecule: O=C1CC[C@@]2(O)[C@H]3Cc4ccc(O)c5c4[C@@]2(CCN3CC2CC2)[C@H]1O5 [Naltrexone, naltrexone]
- % reversal of pain (neuropathic back pain): 100%
- Anxiety frequency ([2]; 2.5 mg daily): 11.9%
- Diarrhea frequency ([2]; 2.5 mg daily): 6.0%
- Muscle pain frequency ([2]; 2.5 mg daily): 4.5%
- Anxiety frequency ([2]; 5.0 mg daily): 21.7%
- Diarrhea frequency ([2]; 5.0 mg daily): 13.0%
- Muscle pain frequency ([2]; 5.0 mg daily): 15.2%
- side effects that were short-lived ([2]; 24 patients, of those with side effects): 32.4%
- Abdominal pain, Percentage of Participants ([2]; 121 patients): 11.6%
- Anorexia, Percentage of Participants ([2]; 121 patients): 8.3%
- Anxiety, Percentage of Participants ([2]; 121 patients): 15.7%
- Diarrhea, Percentage of Participants ([2]; 121 patients): 8.3%
- Dizziness, Percentage of Participants ([2]; 121 patients): 10.7%
- Drowsiness, Percentage of Participants ([2]; 121 patients): 11.6%
- Headache, Percentage of Participants ([2]; 121 patients): 11.6%
- Insomnia, Percentage of Participants ([2]; 121 patients): 8.3%
- Mood change, Percentage of Participants ([2]; 121 patients): 3.3%
- Muscle pain, Percentage of Participants ([2]; 121 patients): 8.3%
- Nausea, Percentage of Participants ([2]; 121 patients): 12.4%
- No side effects, Percentage of Participants ([2]; 121 patients): 38.8%
- Terminated Naltrexone because of side effects ([2]; 121 patients): 16.5%
- Trouble concentrating, Percentage of Participants ([2]; 121 patients): 1.7%
- Vivid dreams, Percentage of Participants ([2]; 121 patients): 5.0%
- Total side effects, Percentage of Participants ([2]; 121 patients, listed as LDN): 61%
- Total side effects, Percentage of Participants ([2]; 121 patients, listed as Low Dose Naltrexone): 61.2%
- Total side effects, Percentage of Participants ([2]; 121 patients, listed as low dose Naltrexone): 61/2
- incidence of nervousness, insomnia, and anxiety ([2]; low dose): double digit incidence
- incidence of nervousness, insomnia, and anxiety [3]: single-digit incidence
- side effects [4]: no side effects were reported
- side effects [5]: high incidence of alertness, insomnia and anxiety
- action at TLR4 [1]: antagonists for TLR4

Molecule: CN1CC[C@]23c4c5ccc(O)c4O[C@H]2[C@@H](O)C=C[C@H]3[C@H]1C5 [morphine]
- action at TLR4 [1]: TLR4 agonists

Molecule: C=CCN1CC[C@]23c4c5ccc(O)c4O[C@H]2C(=O)CC[C@@]3(O)[C@H]1C5 [naloxone]
- action at TLR4 [1]: antagonists for TLR4

Molecule: Etanercept
- duration of relief from previous treatment (leg pain; three perispinal injections): two
- relief from previous treatment (leg pain; three perispinal injections): 10%

Molecule: botulinum toxin
- duration of relief from previous treatment (leg pain; in vivo): two
- relief from previous treatment (leg pain; in vivo): 10%
